The test system of one assay is NAD(P)H oxidase. Nature of the assay: Non-mitochondrial ROS/H2O2 production by NAD(P)H oxidase (Amplex Red). The assay is classed as biochemical. The following applies: no mitochondria; for effect on ROS measurement with NAD(P)H oxidase: 10 to 100 μM; for averaged percentage of ROS production across all concentrations tested: NAD(P)H oxidase, FIG. 22A. On the procedure:
Rates of ROS/H2O2 production from heart mitochondria were assessed through the oxidation of the colorless, non-fluorescent indicator Amplex Red in the presence of exogenous horseradish peroxidase (HRP, EC 1.11.1.7, Sigma). H2O2 reacts with Amplex Red in a 1:1 stoichiometry, yielding the fluorescent compound resorufin (excitation: 560 nm; emission: 585 nm) which is stable once formed. Fluorescence was measured continuously with a spectro-fluorometer equipped with temperature control and stirring (SAFAS Xenius, Monaco). Isolated mitochondria (0.1 mg/mL) were incubated in the same experimental buffer than previously, supplemented with 15 μM Amplex Red and 10 μg/mL HRP. Glutamate (5 mM)/malate (2.5 mM) together with succinate (5 mM) were used as complex I and complex II substrates, respectively. Experiments were conducted under non-phosphorylating conditions in the presence of 15 μM atractyloside, i.e., under state IV conditions where […]. Afterwards, rotenone (1.5 μM), antimycin A (2 μM), and myxothiazol (0.2 μM) were sequentially added to inhibit the redox centers within the electron transfer chain (FIG. 2), namely sites IQ, IF (with rotenone), IIIQi (with antimycin A) and IIIQO (with myxothiazol). Assay was finally calibrated with known amounts of H2O2 (steps of 300 nM), in the presence of all relevant compounds, including AOL. The control test of the absence of effect of AOL on the Amplex Red assay itself and NAD(P)H oxidase ROS/H2O2 production was carried out in the absence of cardiac mitochondria and the presence of NAD(P)H oxidase (EC 1.6.3.3, 5 mU/mL, Sigma) and NADH (100 μM) solutions.
The specificity of AOL was further tested in vitro using the peroxidase-Amplex Red system utilized for the measurement of ROS/H2O2 by mitochondria, which in fact measures the appearance of H2O2 by the oxidation of Amplex Red to the fluorescent resorufin (see FIG. 4). In the absence of mitochondria and by adding instead a H2O2-producing system to the measuring system, it was possible to test the effect of AOL on this system. This has been carried out by using commercial NAD(P)H oxidase which produces H2O2 in the presence of added NAD(P)H and measuring the reduction of Amplex Red to resorufin (FIG. 4).
Isolated mitochondria (0.1 mg/mL) were incubated in the same experimental buffer than previously, supplemented with 15 μM Amplex Red and 10 μg/mL HRP. Glutamate (5 mM)/malate (2.5 mM) together with succinate (5 mM) were used as complex I and complex II substrates, respectively. Experiments were conducted under non-phosphorylating conditions in the presence of 15 μM atractyloside. Afterwards, rotenone (1.5 μM), antimycin A (2 μM), and myxothiazol (0.2 μM) were sequentially added to inhibit the redox centers within the electron transfer chain (see FIG. 2), namely sites IQ, IF (with rotenone), IIIQi (with antimycin A) and IIIQO (with myxothiazol). Assay was finally calibrated with known amounts of H2O2 (steps of 300 nM), in the presence of all relevant compounds, including AOX. The control test of the absence of effect of AOL, AOX and Oltipraz on the Amplex Red assay itself and NAD(P)H oxidase […] production was carried out in the absence of cardiac mitochondria and the presence of NAD(P)H oxidase (EC 1.6.3.3, 5 mU/mL, Sigma) and NADH (100 μM) solutions.
The mechanism of action of AOX was further tested in vitro using the peroxidase-Amplex Red system utilized for the measurement of ROS/H2O2 by mitochondria, which in fact measures the appearance of H2O2 by the oxidation of Amplex Red to the fluorescent resorufin (FIG. 22). In the absence of mitochondria and by adding instead a H2O2-producing system to the assay, it was possible to test the effect of AOX on this non-mitochondrial superoxide/H2O2 production. This has been carried out by using commercial NAD(P)H oxidase which produces H2O2 in the presence of added NAD(P)H and measuring the reduction of Amplex Red to resorufin. […]

The test system of a further assay is site IQ. Briefly: ROS/H2O2 production, site targeted individually (96-well Amplex Red), 10 mM succinate alone. The assay is classed as biochemical, rat. The note with it: 0 to 80 μM; effect at concentrations as low as 2.5 μM. How it is done:
After freshly isolating mitochondria from rat heart, then measuring protein quantity of the mitochondrial suspension, H2O2 production in response to the exogenous addition of increasing concentrations of AOL, AOX and Oltipraz was measured fluorimetrically with Amplex Red and horseradish peroxidase (HRP).
The two major sites of mitochondrial ROS/H2O2 production were targeted individually using the combination of succinate (energy substrate of respiratory complex 2) and known inhibitors of respiratory chain, namely for site IQ, 10 mM succinate alone (CCCP as positive control) and for site IIIQouter, 10 mM succinate, 4 μM rotenone and 2.5 μM antimycin A (myxothiazol as positive control). These “reaction” solutions were designed to generate maximal rates of ROS/H2O2 production predominantly from a single site within the chain (Quinlan et al. 2013. Redox Biol. 1:304-12).
For measurement, a working solution of 50 μM Amplex red reagent and 20 μg/ml HRP was mixed to the reaction buffer into the corresponding wells of a 96-well plate (Greiner 96 F-bottom), in the absence or presence of increasing concentrations (from 0 to 80 μM) of AOL, AOX or Oltipraz. Addition of mitochondria to a final concentration of 0.125 mg/mL per well initiated the assay. The appropriate total volume per microplate well was 200 μL.
Plates were incubated in the dark at room temperature for 20-25 minutes. A double orbital shaking (100 rpm-3 seconds) was applied before reading the endpoint fluorescence values on a CLARIOstar plate reader (BMG LABTECH GmbH, Germany). In fact, H2O2 reacts with Amplex Red in a 1:1 stoichiometry, yielding the fluorescent compound resorufin that was analyzed using the following optic settings (excitation wavelength at 546-20 nm; emission at 600-40 nm; gain: 750).
Also, an H2O2 standard curve, with concentrations ranging from 0 to 5 μM, was prepared in the experimental buffer that consisted in (in mM): 140 sucrose, 100 KCl, 1 EGTA, 20 MgCl2, 10 KH2PO4, and 1 g/L (w/v) BSA essentially fatty acid free (pH 7.2). […]

The values that follow come from patent US11484529B2, “Desmethylanethole trithione derivatives for the treatment of diseases linked to mitochondrial reactive oxygen species (ROS) production” (OP2 Drugs, priority 2017, dated 2022).

Structures are written as SMILES.

Turning to `COc1ccc(-c2cc(=S)ss2)cc1` [AOL, 5-(4-methoxyphenyl)-3H-1,2-dithiole-3-thione], in the assay on NAD(P)H oxidase, the “effect on ROS measurement with NAD(P)H oxidase” value is “no global effect” and the “averaged percentage of ROS production across all concentrations tested” value is listed as 99.2%. Besides, the “inhibition of fluorescence in NAD(P)H oxidase/Amplex Red system” value in the assay with NAD(P)H oxidase (results not shown) is on record as “did not observe any inhibition”. Also, the “inhibition of ROS production in site IQ” value in the assay with site IQ is “strongly inhibit the ROS production by complex I”.
Take `Oc1ccc(-c2cc(=S)ss2)cc1` [AOX, 5-(4-hydroxyphenyl)-3H-1,2-dithiole-3-thione]: in the assay on NAD(P)H oxidase, the “effect on ROS measurement with NAD(P)H oxidase” value was “no global effect” and the “averaged percentage of ROS production across all concentrations tested” value is given as 109.9%. The “inhibition of ROS production in site IQ” value in the assay on site IQ is given as “strongly inhibit the ROS production by complex I”.
